How the values were obtained:
[1] = tested on: 786-O cells; assay: mitosis live cell imaging (SiR-tubulin); format: cell-based, human; details: single drug alone
Description: In order to test whether C2 treatment affects cell division, this process was monitored by live cell imaging. 786-O cells were treated with 0.1% DMSO in the cell culture medium (CTRL) or C2 and stained with the live cell dye SiR-tubulin (microtubule marker) to label the mitotic spindle, monitor mitotic progression and detect any cytokinesis failure. All experiments were performed in the presence of Valspodar (4 μM), a multi-drug pump inhibitor that prevented SiR-tubulin removal from the cell (this concentration of Valspodar had no effect on the efficacy of C2). Live cells were recorded for 24 hours at a temporal resolution of 3 minutes (FIG. 7A).
20 points were taken per condition.

[2] = tested on: 786-O cells; assay: in vitro cell viability bioassay measuring cell metabolic activity (CellTiterGlo); format: cell-based, human; details: for IC20: ED20 (or lower, based on clinically attainable plasma concentrations), highest dose for combinatorial screening; for EC50: 786-0, dose that inhibited 50% of cell viability vs control, 72 h treatment, read-out: ED50 (the source's name)
Description: Seeding density was 2-10×10^3cells/well, depending on the cell line's growth characteristics such that the control cells approach confluency at the time of the assay readout. Subsequently, cell viability was assessed using the CellTiterGlo® luminescence assay (Promega, Madison, Wis., USA) and cell viability was reported as the luminescence signal in the treated wells normalized to the signal in the DMSO treated control wells. Dose-response curves and IC50 values were determined in Graphpad Prism® using a four-parameter non-linear fit of the log transformed dose data of each compound.

[3] = tested on: COLO-205 cells; assay: cell metabolic activity assay (CellTitre-Glo), CRC line; format: cell-based; details: COLO-205, CIN and high centrosome numbers
Description: C2 and the individual drugs present in C2 were assayed in a cell metabolic activity assay (CellTitre-Glo) where the bioluminescence was detected, to the following cell panel: two MIN (microsatellite instability) cell lines (HCT-116 and DLD1), two CIN (chromosomal instability) cell lines (SW480 and SW620), COLO205 (CIN and high centrosome numbers), HT29 (CIN and replication stress induced centriole dis-engagement), CCD841 (non-malignant colon cell line; negative control) and 786-O (renal carcinoma cell line; positive control).

EC50 ([2]; Homo sapiens) [µM] | SMILES | effect on mitosis duration [1] | IC20 ([2]; Homo sapiens, 786-0, 72 h) [nM] | killing / toxicity (cell metabolic activity) [3] | IC20 [2] [nM]
0.01 | Cc1[nH]c2ccccc2c1CCNCc1ccc(/C=C/C(=O)NO)cc1 [LBH-589] | – | 2 | – | –
11.5 | CC(=O)Nc1ccc(C(=O)Nc2ccccc2N)cc1 [CI-994, 4-(Acetylamino)-N-(2-aminophenyl)benzamide] | – | 1000 | – | –
0.09 | Cn1c(=O)n(-c2ccc(C(C)(C)C#N)cc2)c2c3cc(-c4cnc5ccccc5c4)ccc3ncc21 [BEZ-235] | – | 20 | – | –
33 | Cc1cc(Nc2cc(N3CCN(C)CC3)nc(Sc3ccc(NC(=O)C4CC4)cc3)n2)[nH]n1 [VX-680] | – | 650 | – | –

Further lines, the compound ahead of its results:

SMILES | EC50 ([2]; Homo sapiens) [µM] | effect on mitosis duration [1] | IC20 ([2]; Homo sapiens, 786-0, 72 h) [nM] | killing / toxicity (cell metabolic activity) [3] | IC20 [2] [nM]
O=C(CCCCCCC(=O)Nc1ccc([C@H]2O[C@@H](CSc3nc(-c4ccccc4)c(-c4ccccc4)o3)C[C@@H](c3ccc(CO)cc3)O2)cc1)NO [tubacin, N-(4-{(2R,4R,6S)-4-{[(4,5-diphenyl-1,3-oxazol-2-yl)sulfanyl]methyl}is [4-(hydroxymethyl)phenyl]-1,3-dioxan-2-yl}phenyl)-N′-hydroxyoctanediamide] | 6 | small delay in mitosis | 2000 | partial toxicity | –
C#Cc1cccc(Nc2ncnc3cc(OCCOC)c(OCCOC)cc23)c1 [erlotinib, N-(3-Ethynylphenyl)-6,7-bis(2-methoxyethoxy) quinazolin-4-amine] | 6.6 | small delay in mitosis | 2000 | – | –
Cc1nc(Nc2ncc(C(=O)Nc3c(C)cccc3Cl)s2)cc(N2CCN(CCO)CC2)n1 [dasatinib, N-(2-chloro-6-methylphenyl)-2-[[6-[4-(2-hydroxyethyl)piperazin-1-yl]-2-methylpyrimidin-4-yl]amino]-1,3-thiazole-5-carboxamide] | 0.1 | – | 50 | – | –
O=C(CCCCCCC(=O)Nc1ccccc1)NO [SAHA] | – | – | – | – | 1000
CNC(=O)c1ccccc1Sc1ccc2c(/C=C/c3ccccn3)n[nH]c2c1 [axitinib] | – | – | 200 | – | –
CNC(=O)c1cc(Oc2ccc(NC(=O)Nc3ccc(Cl)c(C(F)(F)F)c3)cc2)ccn1 [sorafenib] | – | – | 10 | – | –
